Data from ChEMBL document CHEMBL4507327 (2021).
One block for each compound: values may come before it.

How the values were obtained:
[1] = biological target: T1, Muscarinic acetylcholine receptor M2 (Homo sapiens) (UniProt P08172); conditions: Compound concentration 10.0 uM
T1 sequence (whole entry): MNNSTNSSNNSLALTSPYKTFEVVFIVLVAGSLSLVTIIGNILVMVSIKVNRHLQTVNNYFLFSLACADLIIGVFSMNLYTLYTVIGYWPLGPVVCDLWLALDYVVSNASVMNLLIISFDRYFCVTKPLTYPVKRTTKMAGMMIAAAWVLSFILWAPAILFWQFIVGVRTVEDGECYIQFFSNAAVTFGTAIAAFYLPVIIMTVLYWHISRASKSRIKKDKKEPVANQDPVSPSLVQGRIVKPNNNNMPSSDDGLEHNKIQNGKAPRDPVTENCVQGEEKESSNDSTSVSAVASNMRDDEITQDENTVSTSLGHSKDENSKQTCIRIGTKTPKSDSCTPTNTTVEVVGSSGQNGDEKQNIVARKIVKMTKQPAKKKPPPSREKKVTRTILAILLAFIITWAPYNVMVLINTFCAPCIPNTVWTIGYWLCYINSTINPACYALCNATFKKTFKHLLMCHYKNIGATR

[2] = biological target: T2, Muscarinic acetylcholine receptor M1 (Homo sapiens) (UniProt P11229); conditions: Compound concentration 10.0 uM
T2 sequence (whole entry): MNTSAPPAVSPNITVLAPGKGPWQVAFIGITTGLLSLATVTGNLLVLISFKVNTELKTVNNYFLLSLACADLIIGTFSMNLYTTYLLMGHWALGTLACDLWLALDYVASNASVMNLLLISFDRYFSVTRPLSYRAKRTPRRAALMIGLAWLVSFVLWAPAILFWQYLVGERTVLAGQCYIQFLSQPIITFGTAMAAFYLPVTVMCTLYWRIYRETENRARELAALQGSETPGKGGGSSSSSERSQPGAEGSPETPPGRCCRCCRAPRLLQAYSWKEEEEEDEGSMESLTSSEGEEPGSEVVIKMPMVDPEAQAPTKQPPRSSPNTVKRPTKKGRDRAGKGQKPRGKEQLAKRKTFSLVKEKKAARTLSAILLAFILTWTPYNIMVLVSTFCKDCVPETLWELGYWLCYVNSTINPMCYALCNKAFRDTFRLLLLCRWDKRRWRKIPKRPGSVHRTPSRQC

Rattus norvegicus [3] = organism: Rattus norvegicus; assay: Inhibition of Imidazoline I2, Central at 10 µM in the Eurofins-Panlabs radioligand binding assay (Eurofins_assay_241000); design: ligand concentration 2 nM; conditions: Compound concentration 10.0 uM
[4] = biological target: Kappa-type opioid receptor (Homo sapiens) (UniProt P41145); conditions: Compound concentration 10.0 uM
[5] = biological target: Alpha-2C adrenergic receptor (Homo sapiens) (UniProt P18825); conditions: Compound concentration 10.0 uM
Sequence of Alpha-2C adrenergic receptor (Homo sapiens) (P18825 whole entry): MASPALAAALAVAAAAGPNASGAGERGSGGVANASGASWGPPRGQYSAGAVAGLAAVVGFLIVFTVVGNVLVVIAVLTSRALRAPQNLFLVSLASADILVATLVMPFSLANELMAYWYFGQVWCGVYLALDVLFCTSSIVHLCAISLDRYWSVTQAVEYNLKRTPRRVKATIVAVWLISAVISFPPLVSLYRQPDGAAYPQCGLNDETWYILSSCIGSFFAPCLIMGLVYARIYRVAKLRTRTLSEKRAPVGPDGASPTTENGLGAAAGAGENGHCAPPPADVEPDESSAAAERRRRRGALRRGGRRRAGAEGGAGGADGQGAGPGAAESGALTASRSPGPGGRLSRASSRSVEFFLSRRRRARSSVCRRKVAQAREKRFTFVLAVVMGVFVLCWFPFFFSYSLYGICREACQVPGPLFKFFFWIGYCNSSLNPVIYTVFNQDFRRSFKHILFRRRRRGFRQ

[6] = biological target: Histamine H2 receptor (Homo sapiens) (UniProt P25021); conditions: Compound concentration 10.0 uM
Rattus norvegicus [7] = organism: Rattus norvegicus; conditions: Compound concentration 10.0 uM
[8] = biological target: 5-hydroxytryptamine receptor 2C (Homo sapiens) (UniProt P28335); conditions: Compound concentration 10.0 uM
[9] = biological target: 5-hydroxytryptamine receptor 1B (Homo sapiens) (UniProt P28222); conditions: Compound concentration 10.0 uM
[10] = biological target: D(2) dopamine receptor (Homo sapiens) (UniProt P14416); conditions: Compound concentration 10.0 uM
Sequence of D(2) dopamine receptor (Homo sapiens) (P14416 whole entry): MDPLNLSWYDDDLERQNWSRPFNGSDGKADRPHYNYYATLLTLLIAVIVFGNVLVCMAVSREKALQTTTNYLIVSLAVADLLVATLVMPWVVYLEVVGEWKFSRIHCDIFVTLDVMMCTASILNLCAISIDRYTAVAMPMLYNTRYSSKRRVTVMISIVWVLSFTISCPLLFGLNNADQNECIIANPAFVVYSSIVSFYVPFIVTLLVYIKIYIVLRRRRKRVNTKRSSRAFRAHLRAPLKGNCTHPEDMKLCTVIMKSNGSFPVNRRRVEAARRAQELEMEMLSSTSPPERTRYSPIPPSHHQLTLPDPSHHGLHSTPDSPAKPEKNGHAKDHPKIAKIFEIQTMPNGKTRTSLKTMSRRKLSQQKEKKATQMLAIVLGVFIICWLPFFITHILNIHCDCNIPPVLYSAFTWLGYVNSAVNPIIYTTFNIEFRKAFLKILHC

[11] = biological target: Sodium-dependent serotonin transporter (Homo sapiens) (UniProt P31645); conditions: Compound concentration 10.0 uM
Sequence of Sodium-dependent serotonin transporter (Homo sapiens) (P31645 whole entry, looked up): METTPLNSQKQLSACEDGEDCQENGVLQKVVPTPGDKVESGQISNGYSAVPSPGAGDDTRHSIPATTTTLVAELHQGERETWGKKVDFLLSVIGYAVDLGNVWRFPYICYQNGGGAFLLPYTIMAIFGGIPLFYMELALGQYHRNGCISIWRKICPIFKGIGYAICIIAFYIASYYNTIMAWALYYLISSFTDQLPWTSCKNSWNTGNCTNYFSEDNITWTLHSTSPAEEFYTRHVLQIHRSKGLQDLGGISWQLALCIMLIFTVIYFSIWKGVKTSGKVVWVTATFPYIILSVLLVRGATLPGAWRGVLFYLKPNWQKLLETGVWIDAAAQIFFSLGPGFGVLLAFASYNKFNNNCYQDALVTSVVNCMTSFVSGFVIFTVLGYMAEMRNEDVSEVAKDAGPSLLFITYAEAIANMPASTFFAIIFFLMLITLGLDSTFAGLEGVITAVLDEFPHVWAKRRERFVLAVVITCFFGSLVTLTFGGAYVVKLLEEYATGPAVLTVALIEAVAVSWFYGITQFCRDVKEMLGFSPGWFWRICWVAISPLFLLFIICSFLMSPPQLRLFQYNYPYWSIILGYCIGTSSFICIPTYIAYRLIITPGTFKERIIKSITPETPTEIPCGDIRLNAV

[12] = biological target: D(1B) dopamine receptor (Homo sapiens) (UniProt P21918); conditions: Compound concentration 10.0 uM
[13] = biological target: Delta-type opioid receptor (Homo sapiens) (UniProt P41143); conditions: Compound concentration 10.0 uM
[14] = biological target: 5-hydroxytryptamine receptor 1E (Homo sapiens) (UniProt P28566); conditions: Compound concentration 10.0 uM
[15] = biological target: 5-hydroxytryptamine receptor 6 (Homo sapiens) (UniProt P50406); conditions: Compound concentration 10.0 uM
[16] = biological target: Muscarinic acetylcholine receptor M4 (Homo sapiens) (UniProt P08173); conditions: Compound concentration 10.0 uM
Misshapen-like kinase 1 = Misshapen-like kinase 1 (Homo sapiens, UniProt Q8N4C8); assay: MINK [ZC3(MIN1LGF1)] Takeda global kinase panel
[17] = biological target: Serine/threonine-protein kinase 38 (Homo sapiens, UniProt Q15208); assay: NDR1(ST38LGF1) Takeda global kinase panel
Sequence of Serine/threonine-protein kinase 38 (Q15208 whole entry): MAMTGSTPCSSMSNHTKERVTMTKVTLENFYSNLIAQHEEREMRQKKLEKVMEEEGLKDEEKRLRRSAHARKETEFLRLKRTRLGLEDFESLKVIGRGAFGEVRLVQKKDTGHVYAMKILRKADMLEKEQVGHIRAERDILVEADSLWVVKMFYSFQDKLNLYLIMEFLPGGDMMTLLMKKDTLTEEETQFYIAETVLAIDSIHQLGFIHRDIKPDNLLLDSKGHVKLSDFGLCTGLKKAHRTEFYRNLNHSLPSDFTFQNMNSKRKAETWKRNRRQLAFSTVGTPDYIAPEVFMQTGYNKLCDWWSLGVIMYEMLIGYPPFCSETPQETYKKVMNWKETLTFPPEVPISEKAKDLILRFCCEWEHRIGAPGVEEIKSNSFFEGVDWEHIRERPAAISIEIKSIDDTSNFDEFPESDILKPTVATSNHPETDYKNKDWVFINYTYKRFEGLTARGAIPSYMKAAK

[18] = biological target: MAP kinase-activated protein kinase 2 (Homo sapiens, UniProt P49137); assay: MAPKAPK2(MPK2LGRH) Takeda global kinase panel
[19] = biological target: Inhibitor of nuclear factor kappa-B kinase subunit epsilon (Homo sapiens, UniProt Q14164); assay: IKKepsilon(IKBELGY1) Takeda global kinase panel
[20] = biological target: RAC-alpha serine/threonine-protein kinase (Homo sapiens, UniProt P31749); assay: Akt1 [PKBalpha(AKT1PHFB)] Takeda global kinase panel
[21] = biological target: Tyrosine-protein kinase Yes (Homo sapiens, UniProt P07947); assay: Yes(YES1LGF1) Takeda global kinase panel
[22] = biological target: Leucine-rich repeat serine/threonine-protein kinase 2 (Homo sapiens, UniProt Q5S007); assay: LRRK2(LRR2PGF1) Takeda global kinase panel
Ephrin type-A receptor 2 = Ephrin type-A receptor 2 (Homo sapiens, UniProt P29317); assay: EphA2(EPA2LGY1) Takeda global kinase panel
[23] = biological target: Calcium/calmodulin-dependent protein kinase type II subunit beta (Homo sapiens, UniProt Q13554); assay: CaMK2beta(CA2BCGT1) Takeda global kinase panel
Sequence of Calcium/calmodulin-dependent protein kinase type II subunit beta (Q13554 whole entry): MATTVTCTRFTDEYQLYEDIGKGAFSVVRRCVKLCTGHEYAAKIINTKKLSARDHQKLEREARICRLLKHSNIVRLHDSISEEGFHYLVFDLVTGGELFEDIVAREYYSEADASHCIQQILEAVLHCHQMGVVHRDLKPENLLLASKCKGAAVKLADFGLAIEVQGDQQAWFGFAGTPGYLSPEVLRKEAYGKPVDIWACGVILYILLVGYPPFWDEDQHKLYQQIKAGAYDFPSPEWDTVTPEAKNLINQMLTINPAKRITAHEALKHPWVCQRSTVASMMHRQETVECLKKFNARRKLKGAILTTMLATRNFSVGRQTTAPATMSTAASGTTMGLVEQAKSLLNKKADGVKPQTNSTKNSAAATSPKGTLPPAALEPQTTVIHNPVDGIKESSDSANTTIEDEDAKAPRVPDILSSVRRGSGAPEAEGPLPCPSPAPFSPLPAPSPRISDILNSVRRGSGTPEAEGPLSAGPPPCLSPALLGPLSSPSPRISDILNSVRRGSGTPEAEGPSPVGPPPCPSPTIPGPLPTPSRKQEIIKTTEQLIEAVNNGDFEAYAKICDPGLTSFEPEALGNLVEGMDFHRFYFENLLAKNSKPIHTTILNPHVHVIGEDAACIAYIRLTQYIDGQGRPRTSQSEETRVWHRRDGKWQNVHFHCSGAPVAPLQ

[24] = biological target: cAMP-dependent protein kinase catalytic subunit gamma (Homo sapiens, UniProt P22612); assay: PKAgamma(PRCGLGY1) Takeda global kinase panel
[25] = biological target: Tyrosine-protein kinase Lyn (Homo sapiens, UniProt P07948); assay: Lyn(LYN1LGF1) Takeda global kinase panel
Sequence of Tyrosine-protein kinase Lyn (P07948 whole entry): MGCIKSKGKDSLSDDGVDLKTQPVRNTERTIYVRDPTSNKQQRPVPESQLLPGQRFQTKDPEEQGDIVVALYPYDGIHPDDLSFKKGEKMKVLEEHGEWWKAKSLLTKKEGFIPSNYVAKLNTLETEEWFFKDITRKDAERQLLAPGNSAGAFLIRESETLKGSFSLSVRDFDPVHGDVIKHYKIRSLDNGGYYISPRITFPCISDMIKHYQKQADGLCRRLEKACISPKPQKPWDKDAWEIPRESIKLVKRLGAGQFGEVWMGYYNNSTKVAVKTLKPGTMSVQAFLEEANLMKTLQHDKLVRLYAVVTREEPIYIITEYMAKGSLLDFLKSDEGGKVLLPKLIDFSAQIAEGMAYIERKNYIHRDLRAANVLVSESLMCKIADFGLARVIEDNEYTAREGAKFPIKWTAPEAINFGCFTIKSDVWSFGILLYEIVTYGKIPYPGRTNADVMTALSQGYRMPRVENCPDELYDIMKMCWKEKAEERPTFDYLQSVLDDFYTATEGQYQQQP

[26] = biological target: Tyrosine-protein kinase ZAP-70 (Homo sapiens, UniProt P43403); assay: ZAP70(ZAP7LGP1) Takeda global kinase panel
[27] = biological target: Calcium/calmodulin-dependent protein kinase type 1 (Homo sapiens, UniProt Q14012); assay: CaMK1alpha(CAM1LGT5) Takeda global kinase panel
[28] = biological target: Testis-specific serine/threonine-protein kinase 3 (Homo sapiens, UniProt Q96PN8); assay: TSSK3(TSS3LGRM) Takeda global kinase panel
[29] = biological target: L-type calcium channel, benzothiazepine site (Cav1.2 alpha-1C) (Homo sapiens, UniProt Q13936); assay: Inhibition of Calcium Channel L-Type, Benzothiazepine at 10 µM in the Eurofins-Panlabs radioligand binding assay (Eurofins_assay_214510); design: ligand concentration 2 nM, non-specific ligand with concentration 10 µM Diltiazem, incubation time 3h, incubation temperature 4 °C; conditions: male, Wistar, rat, whole brain of rats, probe [3H] Diltiazem; compound concentration 10 uM; target entry is the homologue from another species
Myosin-IIIa = Myosin-IIIa (Homo sapiens, UniProt Q8NEV4); assay: MYO3A(MY3ALGRI) Takeda global kinase panel
Sequence of Myosin-IIIa (Q8NEV4 whole entry): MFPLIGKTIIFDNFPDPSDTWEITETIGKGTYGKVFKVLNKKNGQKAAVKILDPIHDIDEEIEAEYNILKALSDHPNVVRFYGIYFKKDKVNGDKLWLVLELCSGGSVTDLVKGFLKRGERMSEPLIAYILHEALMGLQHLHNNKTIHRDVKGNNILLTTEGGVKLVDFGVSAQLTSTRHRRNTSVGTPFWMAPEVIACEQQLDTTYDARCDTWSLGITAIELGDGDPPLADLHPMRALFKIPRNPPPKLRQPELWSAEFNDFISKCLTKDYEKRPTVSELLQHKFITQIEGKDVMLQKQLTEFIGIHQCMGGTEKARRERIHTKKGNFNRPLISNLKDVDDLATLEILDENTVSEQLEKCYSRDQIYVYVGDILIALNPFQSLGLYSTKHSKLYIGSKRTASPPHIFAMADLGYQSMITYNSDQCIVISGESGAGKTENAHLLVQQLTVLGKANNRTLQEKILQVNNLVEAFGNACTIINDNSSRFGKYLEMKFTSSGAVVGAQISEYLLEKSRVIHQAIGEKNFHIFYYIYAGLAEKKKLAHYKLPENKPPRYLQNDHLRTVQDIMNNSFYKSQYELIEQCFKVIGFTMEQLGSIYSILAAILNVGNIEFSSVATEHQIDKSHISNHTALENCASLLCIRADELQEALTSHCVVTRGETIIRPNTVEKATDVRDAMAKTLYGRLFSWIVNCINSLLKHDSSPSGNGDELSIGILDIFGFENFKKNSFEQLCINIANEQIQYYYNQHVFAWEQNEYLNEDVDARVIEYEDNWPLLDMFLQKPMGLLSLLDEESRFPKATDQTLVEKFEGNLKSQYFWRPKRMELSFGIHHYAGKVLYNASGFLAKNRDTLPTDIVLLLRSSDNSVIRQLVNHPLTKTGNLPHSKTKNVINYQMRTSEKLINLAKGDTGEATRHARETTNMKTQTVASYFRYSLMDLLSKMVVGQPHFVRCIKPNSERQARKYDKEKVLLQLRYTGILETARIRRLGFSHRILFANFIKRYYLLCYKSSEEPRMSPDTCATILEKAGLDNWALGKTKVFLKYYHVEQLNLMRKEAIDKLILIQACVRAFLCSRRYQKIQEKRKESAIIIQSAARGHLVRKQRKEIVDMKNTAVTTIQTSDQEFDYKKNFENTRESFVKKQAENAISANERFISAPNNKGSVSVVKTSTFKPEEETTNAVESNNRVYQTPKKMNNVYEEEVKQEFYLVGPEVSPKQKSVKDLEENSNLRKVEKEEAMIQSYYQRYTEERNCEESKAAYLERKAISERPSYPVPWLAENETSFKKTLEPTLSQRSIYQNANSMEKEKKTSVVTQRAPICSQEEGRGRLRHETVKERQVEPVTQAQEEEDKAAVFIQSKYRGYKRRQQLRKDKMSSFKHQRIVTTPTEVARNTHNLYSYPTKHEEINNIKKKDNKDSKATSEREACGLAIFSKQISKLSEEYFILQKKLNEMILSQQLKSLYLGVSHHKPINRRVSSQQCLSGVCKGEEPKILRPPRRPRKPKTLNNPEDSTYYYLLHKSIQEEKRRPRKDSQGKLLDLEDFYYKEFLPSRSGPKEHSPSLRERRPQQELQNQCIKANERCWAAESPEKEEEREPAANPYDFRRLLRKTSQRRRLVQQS

SMILES: CN1C(=O)[C@@H](N2CCc3cn(Cc4ccccc4)nc3C2=O)COc2ccccc21 [TP-030-1]
inhibition [1]: -4.37%
inhibition [2]: 0.6%
inhibition (Rattus norvegicus [3]): 6%
inhibition [4]: 14.7%
inhibition [5]: 34.7%
inhibition [6]: 11.9%
inhibition (Rattus norvegicus [7]): 68.7%
inhibition [8]: -2.89%
inhibition [9]: 0.99%
inhibition [10]: -5.46%
inhibition [11]: 5.99%
inhibition [12]: 1.77%
inhibition [13]: 28.8%
inhibition [14]: -1.55%
inhibition [15]: -3.95%
inhibition [16]: 8.56%

IC50 (Misshapen-like kinase 1): 1000 nM
IC50 [17]: 1000 nM
IC50 [18]: 1000 nM
IC50 [19]: 1000 nM
IC50 [20]: 1000 nM
IC50 [21]: 1000 nM
IC50 [22]: 1000 nM
IC50 (Ephrin type-A receptor 2): 1000 nM
IC50 [23]: 1000 nM
IC50 [24]: 1000 nM
IC50 [25]: 1000 nM
IC50 [26]: 1000 nM
IC50 [27]: 1000 nM
IC50 [28]: 1000 nM
IC50 (Myosin-IIIa): 1000 nM
SMILES: CN1C(=O)[C@@H](N2CCc3cn(CC4CCS(=O)(=O)CC4)nc3C2=O)COc2ccccc21 [TP-030n]
inhibition at 3 h, 10 µM [29]: 2% (not active)
